# Values quoted from earlier work, collected in patent US20240016938A1, “METHODS FOR INCREASING THE BIOAVAILABILITY OF NUCLEOSIDE MEDICINAL AGENTS” (ZOGENIX MDS, INC., priority 2022, published 2024).
# Conditions: 600-mg oral dose; food intake immediately before oral dosing; cited from earlier work
compound,measurement,value
"Cc1cn([C@@H]2C[C@@H](O)[C@H](CO)O2)c(=O)[nH]c1=O [telbivudine, 3-L-2-deoxythymidine]","absorption as measured by Cmax, Tmax, AUC(0-t), and AUC(0-infinity), fed vs fasting",not altered by food intake
